Test results as given in patent US8318723B2, “Pyrazine compounds, their use and methods of preparation” (Boehringer Ingelheim International GmbH, priority 2006, dated 2012).

Molecular target: PIM-2 (Homo sapiens, UniProt Q9P1W9)
Assay: PIM-2 assay, single-concentration screen (luciferase-luciferin ATP depletion)
Assay type: biochemical
Settings: percent of control at 3 μg/mL final assay concentration, 1 μM ATP, 5 μM peptide substrate, 60 minutes
Protocol: The activity of PIM-2 is measured using luciferase-luciferin based ATP detection reagent to quantify ATP depletion resulting from kinase-catalyzed phosphoryl transfer to a peptide substrate. The screen utilizes the Zymark Allegro UHTS system to dispense reagents, buffers and test compounds. To Greiner 384-well, white Lumitrac-200 plates, 20 μL/well of 20 nM PIM-2 (10 nM final assay concentration) in assay buffer (25 mM HEPES, pH 7.5, 10 mM MgCl2, 50 mM KCl, 0.2% CHAPS, 100 μM Na3VO4, 0.2% BSA and 200 μM TCEP) is delivered, followed by 10 μL/well of test compounds (3 μg/mL final assay concentration in 1% DMSO) that were previously dissolved in DMSO and diluted in assay buffer. A 10 μL volume of a solution containing 4 μM ATP (1 μM final assay concentration) and 20 μM peptide substrate (Biotin-[…], 5 μM final assay concentration) diluted in assay buffer is added to each well and the contents of the wells are mixed. […] The assay plates are read on an Analyst (Molecular Devices) in luminescence mode following additional 15 minutes of incubation at room temperature. Luminescence signals are converted to percent of control (POC) values using the formula: POC=(BCTRL−Signal)÷(BCTRL−PCTRL), where Signal is the test well signal, BCTRL is the average of background control well signals on the plate and PCTRL is the average of positive control well signals on the plate.

PIM-2, sequence (Q9P1W9 whole entry): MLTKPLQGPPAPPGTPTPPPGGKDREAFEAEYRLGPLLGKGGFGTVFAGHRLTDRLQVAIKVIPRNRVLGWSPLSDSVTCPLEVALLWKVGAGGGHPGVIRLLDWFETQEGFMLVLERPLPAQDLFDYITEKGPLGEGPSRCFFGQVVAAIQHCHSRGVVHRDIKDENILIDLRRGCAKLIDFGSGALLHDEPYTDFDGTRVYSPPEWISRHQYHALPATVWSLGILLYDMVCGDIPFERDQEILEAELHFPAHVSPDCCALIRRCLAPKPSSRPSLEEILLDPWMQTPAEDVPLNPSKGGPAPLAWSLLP

How did the “POC @ 3 μg/mL” value turn out when `CN1CCCN(c2cncc(-c3cccc(/C=C/C(=O)NCCO)c3)n2)CC1` [compound 45, (E)-N-(2-Hydroxy-ethyl)-3-{3-[6-(4-methyl-perhydro-1,4-diazepin-1-yl)-pyrazin-2-yl]-phenyl}-acrylamide] was run?
The value was 63 POC @ 3 μg/mL.
